Results on two compounds are retold here after paper PMC10136135, “Electronic Circular Dichroism Detects Conformational Changes Associated with Proteasome Gating Confirmed Using AFM Imaging” (Biomolecules, 2023).

Molecules are shown by their SMILES. Where a SMILES comes first, the peptide text is derived from it.

In experiment [1] the test system is T1, h20S (human 20S proteasome).
T1 construct: gene PSMA1; 20S core particle, 28 subunits (alpha-beta-beta-alpha heptameric rings); commercial, Enzo Life Sciences (AFM); H2T4 at the alpha ring gate, Suc-LLVY-MCA at the beta5 (ChT-L) site; with Proteasome subunit beta type-6; Proteasome subunit beta type-7; Proteasome subunit beta type-3; Proteasome subunit beta type-2; Proteasome subunit beta type-1; Proteasome subunit beta type-4
Briefly: AFM imaging of gate conformers. Type of experiment: binding. The following applies: 5 mM Tris-HCl pH 7, 1% DMSO; beta5 (ChT-L) site.

For experiment [2], the system named is T2, yWT20S / y20S WT (wild type yeast 20S proteasome).
T2 construct: gene SCL1; 20S core particle, 28 subunits (alpha-beta-beta-alpha heptameric rings); with Proteasome subunit beta type-1; Proteasome subunit beta type-2; Proteasome subunit beta type-3; Proteasome subunit beta type-4; Proteasome subunit beta type-5; Proteasome subunit beta type-6; Proteasome subunit beta type-7
Briefly: ECD spectral change (difference spectrum). Particulars: 25 nM 20S, 150 mM Tris, 100 mM NaCl, pH 7.6, 22 °C; H2T4 1 µM in text, 10 µM in figure legend; allosteric, gate opening. Type of experiment: binding, Saccharomyces cerevisiae.

For experiment [3], the system named is T1, h20S (human 20S proteasome). Briefly: AFM imaging of gate conformers; also ECD shift. In kind it is binding. Particulars: 5 mM Tris-HCl pH 7; at least 15 min after addition; control 7 ± 1% open; ECD at 1 µM, 25 nM h20S, pH 7.6, 22 °C; allosteric, gate opening.

Turning to `Cc1cc(=O)oc2cc(NC(=O)[C@H](Cc3ccc(O)cc3)NC(=O)[C@@H](NC(=O)[C@H](CC(C)C)NC(=O)[C@H](CC(C)C)NC(=O)CCC(=O)O)C(C)C)ccc12` [SucLLVY-MCA, succinyl-LeuLeuValTyr-7-amino-4-methylcoumarin] (HELM PEPTIDE1{[O=C(O)CCC(=O)[*:2]].L.L.V.Y.[Cc1cc(=O)oc2cc(N[*:1])ccc12]}$$$$V2.0), the “% open conformers at 100 μM” value in experiment [1] was “addition of the model substrate or the porphyrin ligand shifted the conformational equilibrium”.
In the case of `C[n+]1ccc(-c2c3nc(c(-c4cc[n+](C)cc4)c4ccc([nH]4)c(-c4cc[n+](C)cc4)c4nc(c(-c5cc[n+](C)cc5)c5ccc2[nH]5)C=C4)C=C3)cc1` [H2T4, 5,10,15,20-tetrakis-4-N-methylpirydyl porphyrin], the “ECD spectral change (difference spectrum)” value in experiment [2] was “the addition of H2T4 induces changes in the ECD spectra of yWT20S”. The “% open conformers at 0.2 μM” value in experiment [3] came out at 22 ± 1.3%.
